Assays:
Assay type in all cases: in vivo
Kochia (Kochia scoparia) [1] = experiment: Test A preemergence
In short: (§1)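 Seeds sprayed preemergence with a directed soil spray, or plants at 2 to 10 cm height and one- to two-leaf stage sprayed postemergence, with test chemicals in a non-phytotoxic solvent mixture containing surfactant, in loam soil–sand blend. Injury rated visually against untreated controls after about 10 d in greenhouse, 0 (no effect) to 100 (complete control).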

[2] = test system: barnyardgrass (Echinochloa crus-galli); experiment: Test A preemergence
In short: as §1

[3] = test system: giant foxtail (Setaria faberii); experiment: Test A preemergence
In short: as §1

[4] = test system: pigweed (Amaranthus retroflexus); experiment: Test A preemergence
[5] = test system: ragweed (common ragweed, Ambrosia elatior); experiment: Test A preemergence
In short: as §1

[6] = test system: ryegrass, Italian (Italian ryegrass, Lolium multiflorum); experiment: Test A preemergence
In short: as §1

[7] = test system: Galium (catchweed bedstraw, Galium aparine); experiment: Test A postemergence; settings: postemergence, 0 to 100 scale (0 no effect, 100 complete control)
In short: as §1

Kochia (Kochia scoparia) [8] = experiment: Test A postemergence; settings: postemergence, 0 to 100 scale (0 no effect, 100 complete control)
In short: as §1

[9] = test system: barnyardgrass (Echinochloa crus-galli); experiment: Test A postemergence
In short: as §1

[10] = test system: blackgrass (Alopecurus myosuroides); experiment: Test A postemergence
In short: as §1

corn (Zea mays) = experiment: Test A postemergence
In short: as §1

[11] = test system: giant foxtail (Setaria faberii); experiment: Test A postemergence; settings: postemergence, 0 to 100 scale (0 no effect, 100 complete control)
In short: as §1

[12] = test system: pigweed (Amaranthus retroflexus); experiment: Test A postemergence; settings: postemergence, 0 to 100 scale (0 no effect, 100 complete control)
In short: as §1

[13] = test system: ragweed (common ragweed, Ambrosia elatior); experiment: Test A postemergence; settings: postemergence, 0 to 100 scale (0 no effect, 100 complete control)
In short: as §1

[14] = test system: ryegrass, Italian (Italian ryegrass, Lolium multiflorum); experiment: Test A postemergence; settings: postemergence, 0 to 100 scale (0 no effect, 100 complete control)
In short: as §1

[15] = test system: wheat (Triticum aestivum); experiment: Test A postemergence; settings: postemergence, 0 to 100 scale (0 no effect, 100 complete control)
In short: as §1

[16] = test system: barnyardgrass (Echinochloa crus-galli); experiment: Test B flooded paddy test; settings: Flood, 0 to 100 scale where 0 is no effect and 100 is complete control, 13 to 15 d
In short: (§2)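 Plants at 2-leaf stage flooded to 3 cm above soil, with compounds applied directly to paddy water and that depth maintained. Plants kept in greenhouse 13–15 d. Visual rating versus controls on a 0 (no effect) to 100 (complete control) scale.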

[17] = test system: ducksalad (Heteranthera limosa); experiment: Test B flooded paddy test; settings: Flood, 0 to 100 scale where 0 is no effect and 100 is complete control, 13 to 15 d
In short: as §2

rice (Oryra sativa) = experiment: Test B flooded paddy test; settings: Flood, 0 to 100 scale where 0 is no effect and 100 is complete control, 13 to 15 d
In short: as §2

[18] = test system: sedge, umbrella (small-flower umbrella sedge, Cyperus difformis); experiment: Test B flooded paddy test; settings: Flood, 0 to 100 scale where 0 is no effect and 100 is complete control, 13 to 15 d
In short: as §2

[19] = test system: waterhemp (common waterhemp, Amaranthus rudis); experiment: Test C preemergence; settings: for Plant response rating (scale of 0 to 100), Waterhemp: 31 g ai/ha, 0 is no effect, 100 is complete control; for Plant response rating, Waterhemp: scale 0 to 100, 0 no effect, 100 complete control
From the text: Seeds of plant species selected from blackgrass (Alopecurus myosuroides), ryegrass, Italian (Italian ryegrass, Lolium multiflorum), wheat (winter wheat, Triticum aestivum), Galium (catchweed bedstraw, Galium aparine), corn (Zea mays), crabgrass, large (large crabgrass, Digitaria sanguinalis), foxtail, giant (giant foxtail, Setaria faberii), johnsongrass (Sorghum halepense), lambsquarters (Chenopodium album), morningglory (Ipomoea coccinea), nutsedge, yellow (yellow nutsedge, Cyperus esculentus), pigweed (Amaranthus retroflexus), ragweed (common ragweed, Ambrosia elatior), soybean (Glycine max), barnyardgrass (Echinochloa crus-galli), oilseed rape (Brassica napus), waterhemp (common waterhemp, Amaranthus rudis) and velvetleaf (Abutilon theophrasti) were planted into a blend of loam soil and sand and treated preemergence with test chemicals formulated in a non-phytotoxic solvent mixture which included a surfactant.
At the same time, plants selected from these crop and weed species and also Kochia (Kochia scoparia), oat, wild (wild oat, Avena fatua), and chickweed (common chickweed, Stellaria media) were planted in pots containing Sunshine Redi-Earth® planting medium comprising spaghnum peat moss, vermiculite, starter nutrients and dolomitic limestone and treated with postemergence applications of test chemicals formulated in the same manner. Plants ranged in height from 2 to 18 cm (1- to 4-leaf stage) for postemergence treatments. Treated plants and controls were maintained in a greenhouse for 13 to 15 d, after which time all species were compared to controls and visually evaluated. Plant response ratings, summarized in Table C, are based on a scale of 0 to 100 where 0 is no effect and 100 is complete control. A dash (-) response means no test result.

[20] = 125 g ai/ha, Preemergence, visual injury after approximately 10 d, 0 to 100 scale where 0 is no effect and 100 is complete control
[21] = 500 g ai/ha, preemergence, 0 to 100 scale, 0 = no effect, 100 = complete control
[22] = 125 g ai/ha, visual rating after approx. 10 d
[23] = 500 g ai/ha, visual injury, approx. 10 d
[24] = 125 g ai/ha, postemergence, visual rating after approx. 10 d, 0 to 100 scale (0 no effect, 100 complete control)
[25] = Postemergence, 500 g ai/ha, 0 to 100 scale where 0 is no effect and 100 is complete control
[26] = 125 g ai/ha, preemergence, visual rating after approx. 10 d, 0 to 100 scale where 0 is no effect and 100 is complete control
[27] = 125 g ai/ha, visual injury after approximately 10 d
[28] = 125 g ai/ha, postemergence, visual injury after approximately 10 d, 0 to 100 scale (0 no effect, 100 complete control)
[29] = 500 g ai/ha, postemergence, visual injury, 0 to 100 scale (0 no effect, 100 complete control), approx. 10 d

O=C1NCC(c2ccc3c(c2)OC(F)(F)O3)C1C(=O)Nc1cccc(F)c1F (stereo not drawn) [Compound 635]
90: Plant response rating, Barnyardgrass [2, 20] | Plant response rating, Barnyardgrass [2, 21] | Plant response rating, Foxtail, Giant [3, 20] | Plant response rating, Foxtail, Giant [3, 21] | Plant response rating, Barnyardgrass [9, 25] | Plant response rating, Foxtail, Giant [11, 22] | Plant response rating, Foxtail, Giant [11, 23]
75: Plant response rating (scale of 0 to 100), Waterhemp [19]
30: Plant response rating, Ryegrass, Italian [6, 21] | Plant response rating, Ryegrass, Italian [14, 23]
70: Plant response rating, Pigweed [4, 21] | Plant response rating, Blackgrass [10, 25] | Plant response rating, Corn (corn (Zea mays); [25])
0: Plant response rating, Ragweed [13, 22] | Plant response rating, Ryegrass, Italian [14, 22] | Plant response rating, Sedge, Umbrella ([18]; 500 g ai/ha)
100: Plant response rating, Ducksalad ([17]; 500 g ai/ha)
80: Plant response rating, Kochia (Kochia (Kochia scoparia) [8]; [23]) | Plant response rating, Barnyardgrass [9, 24] | Plant response rating, Pigweed [12, 23] | Plant response rating, Waterhemp ([19]; 62 g ai/ha)
60: Plant response rating, Kochia (Kochia (Kochia scoparia) [1]; [20]) | Plant response rating, Kochia (Kochia (Kochia scoparia) [1]; [21]) | Plant response rating, Pigweed [4, 20] | Plant response rating, Galium [7, 23] | Plant response rating, Kochia (Kochia (Kochia scoparia) [8]; [22]) | Plant response rating, Pigweed [12, 22] | Plant response rating, Barnyardgrass ([16]; 500 g ai/ha)
10: Plant response rating, Rice (rice (Oryra sativa); 500 g ai/ha)
40: Plant response rating, Ragweed [5, 20] | Plant response rating, Galium [7, 22] | Plant response rating, Blackgrass [10, 24] | Plant response rating, Corn (corn (Zea mays); [24]) | Plant response rating, Ragweed [13, 23] | Plant response rating, Wheat [15, 23]
20: Plant response rating, Ryegrass, Italian [6, 20] | Plant response rating, Wheat [15, 22]
85: Plant response rating, Waterhemp ([19]; 125 g ai/ha) | Plant response rating, Waterhemp ([19]; 250 g ai/ha)
50: Plant response rating, Ragweed [5, 21]

O=C1NCC(c2cccc(OC(F)(F)C(F)F)c2)C1C(=O)Nc1cccc(F)c1F (racemic) [Compound 697]
60: Plant response rating, Ragweed [5, 21] | Plant response rating, Kochia (Kochia (Kochia scoparia) [8]; [27]) | Plant response rating, Kochia (Kochia (Kochia scoparia) [8]; [23])
30: Plant response rating, Kochia (Kochia (Kochia scoparia) [1]; [26]) | Plant response rating, Blackgrass [10, 28] | Plant response rating, Ragweed [13, 27] | Plant response rating, Ryegrass, Italian [14, 23]
40: Plant response rating, Ryegrass, Italian [6, 26] | Plant response rating, Blackgrass [10, 29] | Plant response rating, Wheat [15, 23]
80: Plant response rating, Kochia (Kochia (Kochia scoparia) [1]; [21]) | Plant response rating, Barnyardgrass [9, 28] | Plant response rating, Corn (corn (Zea mays); [29]) | Plant response rating, Foxtail, Giant [11, 27] | Plant response rating, Foxtail, Giant [11, 23] | Plant response rating (scale of 0 to 100), Waterhemp [19] | Plant response rating, Waterhemp ([19]; 62 g ai/ha)
70: Plant response rating, Corn (corn (Zea mays); [28])
50: Plant response rating, Pigweed [4, 26] | Plant response rating, Pigweed [4, 21] | Plant response rating, Ragweed [5, 26] | Plant response rating, Ryegrass, Italian [6, 21] | Plant response rating, Galium [7, 27] | Plant response rating, Galium [7, 23] | Plant response rating, Pigweed [12, 27] | Plant response rating, Pigweed [12, 23] | Plant response rating, Ragweed [13, 23]
85: Plant response rating, Waterhemp ([19]; 125 g ai/ha) | Plant response rating, Waterhemp ([19]; 250 g ai/ha)
0: Plant response rating, Rice (rice (Oryra sativa); 500 g ai/ha) | Plant response rating, Sedge, Umbrella ([18]; 500 g ai/ha)
20: Plant response rating, Ryegrass, Italian [14, 27] | Plant response rating, Wheat [15, 27]
90: Plant response rating, Barnyardgrass [2, 26] | Plant response rating, Barnyardgrass [2, 21] | Plant response rating, Foxtail, Giant [3, 26] | Plant response rating, Foxtail, Giant [3, 21] | Plant response rating, Barnyardgrass [9, 29] | Plant response rating, Barnyardgrass ([16]; 500 g ai/ha) | Plant response rating, Ducksalad ([17]; 500 g ai/ha)

CN1CC(c2ccc(F)c(F)c2)C(C(=O)Nc2ccccc2C(F)(F)F)C1=O (stereo not drawn) [Compound 641]
20: Plant response rating, Kochia (Kochia (Kochia scoparia) [1]; [20]) | Plant response rating, Pigweed [4, 20] | Plant response rating, Ryegrass, Italian [6, 20] | Plant response rating, Kochia (Kochia (Kochia scoparia) [8]; [23]) | Plant response rating, Pigweed [12, 23] | Plant response rating, Ragweed [13, 23]
70: Plant response rating, Barnyardgrass ([16]; 250 g ai/ha) | Plant response rating, Waterhemp ([19]; 250 g ai/ha)
45: Plant response rating, Waterhemp ([19]; 125 g ai/ha)
0: Plant response rating, Barnyardgrass [2, 21] | Plant response rating, Ragweed [5, 20] | Plant response rating, Kochia (Kochia (Kochia scoparia) [8]; [22]) | Plant response rating, Corn (corn (Zea mays); [24]) | Plant response rating, Pigweed [12, 22] | Plant response rating, Ragweed [13, 22] | Plant response rating, Ryegrass, Italian [14, 22] | Plant response rating, Wheat [15, 22] | Plant response rating, Rice (rice (Oryra sativa); 250 g ai/ha) | Plant response rating, Sedge, Umbrella ([18]; 250 g ai/ha) | Plant response rating (scale of 0 to 100), Waterhemp [19] | Plant response rating, Waterhemp ([19]; 62 g ai/ha)
50: Plant response rating, Kochia (Kochia (Kochia scoparia) [1]; [21]) | Plant response rating, Pigweed [4, 21] | Plant response rating, Galium [7, 23] | Plant response rating, Corn (corn (Zea mays); [29])
40: Plant response rating, Galium [7, 22] | Plant response rating, Ryegrass, Italian [14, 23]
60: Plant response rating, Ragweed [5, 21] | Plant response rating, Ryegrass, Italian [6, 21] | Plant response rating, Blackgrass [10, 29]
30: Plant response rating, Blackgrass [10, 24] | Plant response rating, Wheat [15, 23]
100: Plant response rating, Foxtail, Giant [3, 21] | Plant response rating, Ducksalad ([17]; 250 g ai/ha)
90: Plant response rating, Barnyardgrass [2, 20] | Plant response rating, Foxtail, Giant [3, 20] | Plant response rating, Barnyardgrass [9, 24] | Plant response rating, Barnyardgrass [9, 29] | Plant response rating, Foxtail, Giant [11, 22] | Plant response rating, Foxtail, Giant [11, 23]

From patent US12077503B2, “Substituted cyclic amides and their use as herbicides” (FMC CORPORATION, priority 2015, dated 2024)
